Laboratory results taken from patent US7119111B2, “2-oxo-1,3,4-trihydroquinazolinyl derivatives and methods of use” (Amgen, Inc., priority 2002, dated 2006).

Experiments:
[1] = Cell Proliferation Assay (BrdU incorporation); format: cell-based; details: Homo sapiens; 48 h incubation, BrdU labeling; cell line not specified; read-out: inhibited cell proliferation IC50
Protocol: Cell proliferation was measured using a calorimetric immunoassay (B/M Roche #164 7229), based on the measurement of pyrimidine analog BrdU incorporation during DNA synthesis in proliferating cells. Cells, e.g., human PC-3 prostate carconima cells, huFSF normal human foreskin fibroblast cells, HCT 116 human colon carcinoma cells or HT 29 human colon carcinoma cells, were cultured in a 96-well plate for 24 h, until a cell count of 3×10^3 to 6×10^3 cells per well in duplicate wells were achieved, in a well volume of 200 μl. The media was changed and 1 μl of 200× control inhibitors or compounds was added to each well. Cells are incubated for 48 h at 37° C. The cells were labeled with BrdU for 4 h at 37° C. The labeling medium was removed and in one step, the cells were fixed and the DNA was denatured (30 min at RT). Anti-BrdU-POD antibody was added to bind to the BrdU incorporated in newly synthesized cellular DNA (60–90 min at RT). The cells were washed 3×with washing buffer, substrate (100 μl) was added and the cells were incubated for 10 min at RT. The substrate reaction was stopped by adding 25 μl of 1M H2SO4. The amount of BrdU incorporated was quantified by measuring the absorbance at 450 nm using ELISA reader. IC50's were calculated using GraFit (Sigma).

| Compound | IC50 [1] [µM] | melting point [°C] |
| --- | --- | --- |
| O=C1Nc2cc(-c3cccc(OCCN4CCCCC4)c3)ccc2CN1c1csc(-c2ccncc2)n1 [Example 32, 7-[3-(2-Piperidylethoxy)phenyl]-3-(2-(4-pyridyl)(1,3-thiazol-4-yl))-1,3,4-trihydroquinazolin-2-one] | < 5 | 206 to 208 |
| Nc1ccc2c(c1)NC(=O)N(c1csc(-c3ccncc3)n1)C2 [Example 28, 7-Amino-3-(2-(4-pyridyl)(1,3-thiazol-4-yl))-1,3,4-trihydroquinazolin-2-one] | < 5 | – |
| O=C1Nc2cc(-c3cccc(O)c3)ccc2CN1c1csc(-c2ccncc2)n1 [Example 31, 7-(3-Hydroxyphenyl)-3-(2-(4-pyridyl) (1,3-thiazol-4-yl))-1,3,4-trihydroquinazolin-2-one] | < 5 | 320 to 322 |
| O=C1Nc2cccc(-c3ccccc3)c2CN1c1csc(-c2ccncc2)n1 [Example 34, 5-Phenyl-3-(2-(4-pyridyl)(1,3-thiazol-4-yl))-1,3,4-trihydroquinazolin-2-one] | < 5 | – |
| O=C1Nc2cccc(CN3CCCCC3)c2CN1c1csc(-c2ccncc2)n1 [Example 15, 5-(Piperidylmethyl)-3-(2-(4-pyridyl)(1,3-thiazol-4-yl))-1,3,4-trihydroquinazolin-2-one] | < 5 | – |
